Measured values as given in patent US10179773B2, “Isoxazole carboxamides as irreversible SMYD inhibitors” (EPIZYME, INC., priority 2014, dated 2019).
pIC50: −log10 of the molar value.

Key:
SMYD3 [1] = biological target: T1, SMYD3 (Homo sapiens (Human), UniProt Q9H7B4); assay: SMYD3 Cell Assay (Trimethyl-MEKK2 In-Cell Western, 293T/17 cells); format: cell-based; conditions: 293T/17 cells transfected with MEKK2-flag and SMYD3; 24 hours; trimethyl-MEKK2 signal; average of n = 1 to n = 50
Description: 293T/17 adherent cells were purchased from ATCC (American Type Culture Collection), Manassas, Va., USA. MEM/Glutamax medium, Optimem Reduced Serum medium, penicillin-streptomycin, 0.05% trypsin and 1× D-PBS were purchased from Life Technologies, Grand Island, N.Y., USA. PBS-10× was purchased from Ambion, Life Technologies, Grand Island, N.Y., USA. PBS with Tween 20 (PBST (10×)) was purchased from KPL, Gaithersburg, Md., USA. Tet System FBS-approved FBS US Source was purchased from Clontech, Mountain View, Calif., USA. Odyssey blocking buffer, 800CW goat anti-rabbit IgG (H+L) antibody, 680CW Goat anti-mouse IgG (H+L) and Licor Odyssey infrared scanner were purchased from Licor Biosciences, Lincoln, Nebr., USA. Tri-methyl-Lysine [A260]-MEKK2 antibody, MEKK2 and SMYD3 plasmids were made at Epizyme. Anti-flag monoclonal mouse antibody was purchased from Sigma, St. Louis, Mo., USA. Methanol was purchased from VWR, Franklin, Mass., USA. 10% Tween 20 was purchased from KPL, Inc., Gaithersburg, Md., USA. Fugene was purchased from Promega, Madison, Wis., USA. The Biotek ELx405 was purchased from BioTek, Winooski, Vt., USA. The multidrop combi was purchased from Thermo Scientific, Waltham, Mass., USA.
293T/17 adherent cells were maintained in growth medium (MEM/Glutamax medium supplemented with 10% v/v Tet System FBS and cultured at 37° C. under 5% CO2.
293T/17 cells were seeded in assay medium at a concentration of 33,333 cells per cm^2 in 30 mL medium per T150 flask and incubated at 37° C. under 5% CO2. Plasmids were prepared for delivery to cells by first mixing 1350 μL Opti-MEM with Fugene (81 μL) in a sterile Eppendorf and incubated for five minutes at room temperature (RT). MEKK2-flag (13.6 ug/T150) MEKK2 p3XFlag-CMV-14 with C-3XFlag and SMYD3 (0.151 ug/T150) SMYD3 p3XFlag-CMV-14 without C-3XFlag plasmids were aliquotted to a 1.7 mL sterile microfuge tube. The gene ID for MEKK2 and SMYD3 is NM_006609.3 and Q9H7B4, respectively. Entire volume of Opti-MEM/Fugene mixture was then added to a microfuge tube containing DNA plasmid, mixed and then incubated ×15 minutes at RT. The medium on the 293T/17 cells was refreshed, and the DNA/Fugene complex is added aseptically to each flask, rocked gently, and incubated at 37 C for 5 hours. Medium was then removed, and cells were washed once with PBS in the flask. Trypsin 0.05% (3 mL) was added and cells incubated for three minutes. Room temperature MEM+10% Tet system FBS was added and cells were mixed gently, and counted using the Vi-cell. Cells were seeded at 100,000 cells/mL in 50 μL MEM/10% Tet FBS/Pen/Strep to a 384 well black/clear poly-D-lysine coated plate containing test agent diluted in DMSO. The final top concentration of test compound was 40 μM. […] Plates were incubated×30 minutes at RT in low-airflow area, followed by incubation at 37° C. under 5% CO2 for 24 hours. Medium was aspirated from all wells of assay plates prior to fixation and permeabilization with ice cold (−20° C.) methanol (90 μL/well) for ten minutes. Plates were rinsed with PBS three times on BioTek ELx405. PBS was removed with a final aspiration, and Odyssey blocking buffer (50 μL/well) was added to each well and incubated for one hour at RT. Primary antibody solution was prepared (anti-trimethyl-MEKK2 at 1:600 dilution plus mouse anti-flag antibody at 1:10,000 dilution in diluent (Odyssey Blocking buffer+0.1% Tween 20)) and 20 μL per well was dispensed using the Multidrop Combi. Assay plates were then sealed with foil, and incubated overnight at 4° C. Plates were washed five times with PBS-Tween (1×) on Biotek ELx405 and blotted on paper towel to remove excess reagent. […]

SMYD3 [2] = biological target: T1, SMYD3; assay: SMYD3 Biochemical Assay (MEKK2 protein substrate, 3H-SAM, SPA); conditions: 30 min preincubation with SMYD3, average of n = 1 to n = 50, read-out: SMYD3 Biochem IC50
Description: S-adenosylmethionine (SAM), S-adenosylhomocysteine (SAH), Tris, Tween20, dimethylsulfoxide (DMSO), bovine skin gelatin (BSG), and Tris(2-carboxyethyl)phosphine hydrochloride solution (TCEP) were purchased from Sigma-Aldrich at the highest level of purity possible. ^3H-SAM was purchase from American Radiolabeled Chemicals with a specific activity of 80 Ci/mmol. 384-well opaque white OptiPlates and SPA beads (Perkin Elmer, catalog # RPNQ0013) were purchased from PerkinElmer.
N-terminally GST-tagged MEKK2 (MAP3K2) protein corresponding to reference sequence AAF63496.3 was purchased from Life Technologies (catalog # PV4010). This protein was expressed in High Five insect cells and purified to >85% purity. Protein identity was confirmed by MS/MS analysis after proteolytic digestion. The protein sequence used was:
Full-length human SMYD3 isoform 1 (BAB86333) was inserted into a modified pET21b plasmid containing a His6 tag and TEV and SUMO cleavage sites. Because two common variants of SMYD3 exist in the population, site directed mutagenesis was subsequently performed to change amino acid 13 from an asparagine to a lysine, resulting in plasmid pEPZ533. A lysine at position 13 conforms to the more commonly occurring sequence (NP_001161212).
E. coli (BL21 codonplus RIL strain, Stratagene) were transformed with plasmid pEPZ553 by mixing competent cells and plasmid DNA and incubating on ice for 30 minutes followed by heat shock at 42° C. for 1 minute and cooling on ice for 2 minutes. Transformed cells were grown and selected on LB agar with 100 μg/mL ampicillin and 17 μg/mL chloramphenicol at 37° C. overnight. A single clone was used to inoculate 200 mL of LB medium with 100 μg/mL ampicillin and 17 μg/mL chloramphenicol and incubated at 37° C. on an orbital shaker at 180 rpm. Once in log growth, the culture was diluted 1:100 into 2 L of LB medium and grown until OD600 was about 0.3 after which the culture was incubated at 15° C. and 160 rpm. Once OD600 reached about 0.4, IPTG was added to a final concentration of 0.1 mM and the cells were grown overnight at 15° C. and 160 rpm. Cells were harvested by centrifugation at 8000 rpm, for 4 minutes at 4° C. and stored at −80° C. for purification.
Expressed full-length human His-tagged SMYD3 protein was purified from cell paste by Nickel affinity chromatography after equilibration of the resin with Buffer A (25 mM Tris, 200 mM NaCl, 5% glycerol, 5 mM β-mercaptoethanol, pH7.8). The column was washed with Buffer B (Buffer A plus 20 mM imidazole) and His-tagged SMYD3 was eluted with Buffer C (Buffer A plus 300 mM imidazole). The His tag, TEV and SUMO cleavage sites were removed generating native SMYD3 by addition of ULP1 protein at a ratio of 1:200 (ULP1:SMYD3). Imidazole was removed by dialysis overnight in Buffer A. The dialyzed solution was applied to a second Nickel column and the native SMYD3 protein was collected from the column flow-through. The flow-through was dialyzed in Buffer D (25 mM Tris, 5% glycerol, 5 mM β-mercaptoethanol, 50 mM NaCl, pH7.8) and ULP1 was removed using a Q sepharose fast flow column. SMYD3 was eluted in Buffer A and further purified using an S200 size-exclusion column equilibrated with Buffer A. SMYD3 was concentrated to 2 mg/mL with a final purity of 89%.
The assays were all performed in a buffer consisting of 25 mM Tris-Cl pH 8.0, 1 mM TCEP, 0.005% BSG, and 0.005% Tween 20, prepared on the day of use. Compounds in 100% DMSO (1 ul) were spotted into a 384-well white opaque OptiPlate using a Bravo automated liquid handling platform outfitted with a 384-channel head (Agilent Technologies). DMSO (1 ul) was added to Columns 11, 12, 23, 24, rows A-H for the maximum signal control and 1 ul of SAH, a known product and inhibitor of SMYD3, was added to columns 11, 12, 23, 24, rows I-P for the minimum signal control. A cocktail (40 ul) containing the SMYD3 enzyme was added by Multidrop Combi (Thermo-Fisher). […]

T1 sequence (Q9H7B4 whole entry): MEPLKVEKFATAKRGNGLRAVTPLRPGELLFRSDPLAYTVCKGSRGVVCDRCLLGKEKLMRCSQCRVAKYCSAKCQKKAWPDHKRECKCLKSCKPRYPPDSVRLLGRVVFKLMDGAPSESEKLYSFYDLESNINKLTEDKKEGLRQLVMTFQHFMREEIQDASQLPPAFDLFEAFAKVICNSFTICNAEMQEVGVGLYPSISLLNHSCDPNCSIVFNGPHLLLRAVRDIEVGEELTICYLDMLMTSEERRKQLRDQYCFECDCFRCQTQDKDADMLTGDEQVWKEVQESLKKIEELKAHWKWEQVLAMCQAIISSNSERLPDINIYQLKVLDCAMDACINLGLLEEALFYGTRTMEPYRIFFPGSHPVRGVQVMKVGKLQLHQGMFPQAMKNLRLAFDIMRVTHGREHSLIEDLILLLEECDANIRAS

| Structure (SMILES) | pIC50 (SMYD3 [1]) | pIC50 (SMYD3 [2]) |
| --- | --- | --- |
| C=CS(=O)(=O)N1CC(NC(=O)c2cc(C3CC3)on2)C1 [Cpd. No. 1, 5-cyclopropyl-N-(1-(vinylsulfonyl)azetidin-3-yl) isoxazole-3-carboxamide] | < 5.00 | < 5.00 |
| C=CS(=O)(=O)N[C@H]1CC[C@H](NC(=O)c2cc(C3CC3)on2)CC1 [Cpd. No. 2, 5-cyclopropyl-N-((1r,4r)-4-(vinylsulfonamido)cyclohexyl) isoxazole-3-carboxamide] |  | 4.51 |
| C=CS(=O)(=O)N1CCC(NC(=O)c2cc(C3CC3)on2)C[C@@H]1C (stereo partly drawn) [compound 6, 5-cyclopropyl-N-((2S)-2-methyl-1-(vinylsulfonyl)piperidin-4-yl) isoxazole-3-carboxamide] | 5.67 | 5.28 |
| C=CS(=O)(=O)N1CCC(NC(=O)c2cc(C3CC3)on2)C[C@H]1C (stereo partly drawn) [compound 7, 5-cyclopropyl-N-((2R)-2-methyl-1-(vinylsulfonyl)piperidin-4-yl) isoxazole-3-carboxamide] | 5.66 | 5.43 |
| C=CS(=O)(=O)N[C@H]1CC[C@@H](NC(=O)c2cc(C3CC3)on2)CC1 [compound 8, 5-cyclopropyl-N-((1s,4s)-4-(vinylsulfonamido)cyclohexyl) isoxazole-3-carboxamide] | < 5.00 | < 5.00 |

Continued, values first:

| pIC50 (SMYD3 [1]) | pIC50 (SMYD3 [2]) | Structure (SMILES) |
| --- | --- | --- |
| 5.18 | 4.48 | O=C(NC1CCN(C(=O)CCl)CC1)c1cc(C2CC2)on1 [Cpd. No. 4, N-(1-(2-chloroacetyl)piperidin-4-yl)-5-cyclopropylisoxazole-3-carboxamide] |
| < 5.00 | < 4.00 | C=CC(=O)N1CCC(NC(=O)c2cc(C3CC3)on2)CC1 [Cpd. No. 5, N-(1-acryloylpiperidin-4-yl)-5-cyclopropylisoxazole-3-carboxamide] |
| < 5.00 | 4.13 | C=CC(=O)N[C@H]1CC[C@H](NC(=O)c2cc(C3CC3)on2)CC1 [compound 3, N-((1r,4r)-4-acrylamidocyclohexyl)-5-cyclopropylisoxazole-3-carboxamide] |
|  | 4.50 | C=CS(=O)(=O)N1CCC(NC(=O)c2cc(C3CC3)on2)CC1 [compound 9, 5-cyclopropyl-N-(1-(vinylsulfonyl)piperidin-4-yl) isoxazole-3-carboxamide] |
|  | < 4.30 | C=CS(=O)(=O)N1CCC(NC(=O)c2cc(C3CC3)on2)C1 (centres unmarked) [compound 10, 5-cyclopropyl-N-(1-(vinylsulfonyl)pyrrolidin-3-yl) isoxazole-3-carboxamide] |
